Test results as given in ChEMBL document CHEMBL1131661, “Use of the Suzuki reaction for the synthesis of aryl-substituted heterocycles as corticotropin-releasing hormone (CRH) antagonists” (Bioorg Med Chem Lett, 1999).

Target: T1, Corticotropin-releasing factor receptor 1 (Homo sapiens, UniProt P34998)
T1 sequence (P34998 whole entry): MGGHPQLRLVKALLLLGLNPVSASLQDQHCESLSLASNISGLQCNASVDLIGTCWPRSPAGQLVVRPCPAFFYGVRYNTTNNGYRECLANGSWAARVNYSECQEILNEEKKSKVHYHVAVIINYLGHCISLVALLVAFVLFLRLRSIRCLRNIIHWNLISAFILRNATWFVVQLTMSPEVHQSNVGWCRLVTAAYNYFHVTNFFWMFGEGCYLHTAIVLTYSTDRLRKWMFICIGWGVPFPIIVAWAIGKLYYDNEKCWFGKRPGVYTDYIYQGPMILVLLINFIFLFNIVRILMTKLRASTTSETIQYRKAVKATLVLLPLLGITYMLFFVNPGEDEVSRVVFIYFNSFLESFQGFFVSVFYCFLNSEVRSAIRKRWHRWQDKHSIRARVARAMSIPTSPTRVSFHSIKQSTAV
Assay: Antagonistic activity for Corticotropin releasing factor receptor 1
Type: functional

| Structure (SMILES) | Ki [nM] |
| --- | --- |
| COc1cc(Br)c(Nc2nc(C)nc(-c3ccccc3C(F)(F)F)c2[N+](=O)[O-])c(OC)c1 | 23.1 |
| CCN(c1nc(C)nc(-c2ccccc2C(F)(F)F)n1)c1ccc(C(C)C)cc1Br | 5.5 |
| COc1cc(Br)c(-n2c(=O)n(C)c3c(-c4ccccc4C(F)(F)F)nc(C)nc32)c(OC)c1 | 95.5 |
| COc1cc(Br)c(Nc2nc(C)nc(-c3ccccc3C(F)(F)F)c2N)c(OC)c1 | 60.3 |
| COc1cc(Br)c(-n2c(C)nc3c(-c4ccccc4C(F)(F)F)nc(C)nc32)c(OC)c1 | 32.3 |
| CCN(CC1CC1)c1nc(C)nc(Nc2c(Cl)cc(Cl)cc2Cl)c1C | 2 |
| CSc1nn(-c2c(Cl)cc(Cl)cc2Cl)c2nc(C)nc(-c3ccccc3C(F)(F)F)c12 | 33.4 |
| COc1cc(Br)c(-n2c(=O)[nH]c3c(-c4ccccc4C(F)(F)F)nc(C)nc32)c(OC)c1 | 202 |
| Cc1cc(C)c(-n2nnc3c(-c4ccccc4C(F)(F)F)nc(C)nc32)c(C)c1 | 168 |
| Cc1cc(C)c(-n2c(C)c(C)c3c(-c4ccccc4C(F)(F)F)nc(C)nc32)c(C)c1 | 9.7 |
| COc1cc(Br)c(-n2nnc3c(-c4ccccc4C(F)(F)F)nc(C)nc32)c(OC)c1 | 21.4 |
| CCCCN(CC)c1nc(C)nc2c1nnn2-c1c(Br)cc(OC)cc1OC | 3.5 |
